What was measured:
LRP6-Gαs interaction = experiment: Coimmunoprecipitation and Western blotting of LRP6-associated G proteins in HEK 293 cells; format: cell-based, human
Protocol: (§1) Cell Culture, Transfections, Coimmunoprecipitation, and Western Blotting Analysis. HEK293,UMR-106,C2C12, and MEF cells were maintained in Dulbecco's modified Eagle's medium (DMEM) with 10% fetal calf serum (FCS). Transfections were performed with Lipofectamine reagent (Invitrogen). Immunoprecipitations and Western blotting analysis of cell lysates were performed as described previously (37). Briefly, cells were lysed in immunoprecipitation buffer [50 mM tris-HCl (pH7.5), 150 mM NaCl, 1% Triton X-100, and 0.5% sodium deoxycholate containing protease inhibitors. The lysates were subjected to immunoprecipitation by incubation with the appropriate antibodies followed by absorption on protein G-Sepharose. The immunoprecipitates were separated by SDS-polyacrylamide gel electrophoresis (SDS-PAGE) and transferred onto a nitrocellulose membrane. Western blots were characterized with the SuperSignal West Femto Substrate system (Pierce, Thermo Fisher Scientific Inc.). Primary antibodies used for Western blotting analysis and immunoprecipitations included mouse antibody against the FLAG tag (M2, Sigma-Aldrich), rabbit antibody against VSVG (Covance), mouse antibody against the HA tag (16B12, Covance), rabbit antibody against PTH1R, (PRB-640P, Covance), rabbit antibodies against CREB and phosphorylated CREB (pCREB) (both from Upstate), and rabbit antibody against Gαs and mouse antibody against Gb1 (both from Santa Cruz Biotechnology).

cAMP production = experiment: ICUE3 FRET biosensor, cAMP kinetics in live HEK 293 cells; format: cell-based, human; conditions: PTH(1-34) 50 nM
Description: Detection of the Temporal Dynamics of cAMP Signaling in Living Cells. The binding of cAMP to Epac induces a conformational change that liberates the catalytic domain of Epac from intrasubunit allosteric inhibition (42). A chimeric protein (ICUE3) generated by fusing the N terminus of a truncated form of Epac to enhanced CFP (ECFP) and the C terminus of Epac to citrine, an improved version of yellow fluorescent protein (YFP), was produced as previously described (43). Sandwiching these conformationally responsive elements of Epac between a FRET pair (citrine and ECFP) enables cAMP production and degradation to be monitored by detecting changes in FRET. Therefore, changes in cAMP could be monitored in real time in single live cells. Experiments were performed as previously described (41). […] The ratios of cyan-to-yellow emissions were then calculated at different time points and normalized by dividing all of the ratios by the emission ratio just before stimulation, thereby setting the basal emission ratio to 1. […] The fluorescence intensities of ECFP before (Fda) and after (Fd) citrine photobleaching and the equation E=1−(Fda/Fd) were used to calculate the FRET efficiency.

LRP5-Gαs interaction = experiment: Coimmunoprecipitation and Western blotting of LRP5-associated Gαs in HEK 293 cells; format: cell-based, human; conditions: HEK 293 cells with PTH1R and HA-tagged LRP5, PTH(1-34) 50 nM
Protocol: as §1, with “Primary antibodies used for Western blotting analysis and immunoprecipitations included mouse antibody against the FLAG tag (M2, Sigma-Aldrich), rabbit antibody against VSVG (Covance), mouse antibody against the HA tag (16B12, Covance), rabbit antibody against PTH1R, (PRB-640P, Covance), rabbit antibodies against CREB and phosphorylated CREB (pCREB) (both from Upstate), and rabbit antibody against Gαs and mouse antibody against Gb1 (both from Santa Cruz Biotechnology).” left out

[1] = test system: GST-fused cytoplasmic domain of LRP6 with the GSK-3 site mutated (Ser1544 to Ala)
[2] = test system: GST-fused cytoplasmic domain of LRP6 with the PKA site mutated (Thr1548 to Ala)
[3] = test system: T1, Glutathione S-transferase (GST)-fused cytoplasmic domain of LRP6
T1 sequence: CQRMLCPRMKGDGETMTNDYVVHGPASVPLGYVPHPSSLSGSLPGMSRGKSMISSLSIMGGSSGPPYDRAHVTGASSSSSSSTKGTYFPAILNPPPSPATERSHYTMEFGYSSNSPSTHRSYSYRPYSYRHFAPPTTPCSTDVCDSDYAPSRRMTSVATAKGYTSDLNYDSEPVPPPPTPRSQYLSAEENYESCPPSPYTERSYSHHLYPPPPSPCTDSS

[4] = test system: Glutathione S-transferase (GST)-fused cytoplasmic domain of LRP5 [GST: P08515]
Glutathione S-transferase (GST)-fused cytoplasmic domain of LRP5 [GST: P08515], sequence (P08515 whole entry, looked up, the tested form may be a part): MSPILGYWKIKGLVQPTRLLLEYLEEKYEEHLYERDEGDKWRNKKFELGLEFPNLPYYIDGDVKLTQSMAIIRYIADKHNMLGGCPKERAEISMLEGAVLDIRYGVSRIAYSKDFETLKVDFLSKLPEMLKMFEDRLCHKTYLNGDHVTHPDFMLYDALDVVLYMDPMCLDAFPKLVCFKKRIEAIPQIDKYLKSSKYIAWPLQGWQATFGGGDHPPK

[5] = target: T2, VSVG-tagged LRP6 (wild type) (human, UniProt O75581 20-1613); experiment: co-immunoprecipitation and Western blotting, HEK 293 cells
T2 construct: also called WT-LRP6; WT LRP6; not shown: VSVG tag

[6] = lysis buffer containing AlF4− (100 mM AlCl3, 10 mM NaF)

## 5′-UGCCAAGAAGGCUGAGUCG-3′ (listed as RNA, chemistry not given here) [siRNA specific for axin]
LRP6-Gαs interaction; knockdown of axin vs scrambled control siRNA, PTH(1-34) 50 nM
  PTH-induced interaction between Gαs and LRP6: not affected

## [F][Al-]([F])([F])[F] [AlF4^−]
LRP6-Gαs interaction; [6]
  interaction of LRP6 with Gαs: blocked
  interaction of LRP6 with Gβ1: blocked

## PTH(1-34): a C-terminal-truncated synthetic analog of PTH that has an anabolic effect on bone formation in humans (SVSEIQLMHNLGKHLNSMERVEWLRKKLQDVHNF)
cAMP production
  time to plateau of the cyan-to-yellow emission ratio: 4 to 6 min
  time to rapid change in the ratio of cyan-to-yellow emissions (indication of cAMP production): ≤ 30 s
LRP6-Gαs interaction; HEK 293 cells with PTH1R and VSVG-tagged LRP6, PTH(1-34) 50 nM, within S min of treatment, further enhanced at 30 min
  interaction between Gαs and LRP6: enhanced
LRP5-Gαs interaction
  association of Gαs with LRP5: did not enhance

## Recombinant GSK-3
[1]
  in vitro kinase assay (sequential PKA and GSK-3): Both mutants abolished the phosphorylation of LRP6 by GSK-3
[2]
  in vitro kinase assay (sequential PKA and GSK-3): Both mutants abolished the phosphorylation of LRP6 by GSK-3
[3]
  in vitro kinase assay (PKA with cold ATP, then GSK-3 with [γ-32P]ATP): pretreatment with recombinant PKA enhanced the phosphorylation of LRP6 by GSK-3

## Recombinant catalytic subunit of PKA
[2]
  in vitro kinase assay ([γ-32P]ATP, PhosphorImager): Only alteration of Thr^1548 abolished the phosphorylation of LRP6C by PKA
[4]
  in vitro kinase assay ([γ-32P]ATP, PhosphorImager): the intracellular domain of LRP5 was not phosphorylated
[3]
  in vitro kinase assay ([γ-32P]ATP, PhosphorImager): the intracellular domain of LRP6 (LRP6C) was phosphorylated by PKA

B1: Gαs (endogenous, from HEK 293 cell lysates) (other, human, UniProt P63092 2-394, looked up)
chain: GCLGNSKTEDQRNEEKAQREANKKIEKQLQKDKQVYRATHRLLLLGAGESGKSTIVKQMRILHVNGFNGEGGEEDPQAARSNSDGEKATKVQDIKNNLKEAIETIVAAMSNLVPPVELANPENQFRVDYILSVMNVPDFDFPPEFYEHAKALWEDEGVRACYERSNEYQLIDCAQYFLDKIDVIKQADYVPSDQDLLRCRVLTSGIFETKFQVDKVNFHMFDVGGQRDERRKWIQCFNDVTAIIFVVASSSYNMVIREDNQTNRLQEALNLFKSIWNNRWLRTISVILFLNKQDLLAEKVLAGKSKIEDYFPEFARYTTPEDATPEPGEDPRVTRAKYFIRDEFLRISTASGDGRHYCYPHFTCAVDTENIRRVFNDCRDIIQRMHLRQYELL
notes: Present in whole-cell lysate, so other proteins (Gβγ) may be associated with it; also called Gas; αs subunit of the G protein
[5]
  binding result: binds

From patent publication US20120294871A1, “MODULATION OF GPCR-MEDIATED CAMP PRODUCTION THROUGH LRP6 AND ITS THERAPEUTIC APPLICATION” (THE JOHNS HOPKINS UNIVERSITY, priority 2011, published 2012)
